Test results from patent US12415807B2, “PKC inhibitor solid state forms” (MingSight Pharmaceuticals, Inc., priority 2017, dated 2025).

Tests used:
Interleukin-8 release = assay: Interleukin-8 release; assay type: cell-based
Excerpt: (§1) The methods for these determinations have been described (Grant, et al. 2010, Eur. J. Pharmacol. 627:16-25).

pSHP2 (PKCβ cell assay) = assay: pSHP2 (PKCβ cell assay); assay type: cell-based
Excerpt: as §1

Human PKC delta = Human PKC delta (Homo sapiens, UniProt Q05655); assay: In vitro PKC inhibition, PKC delta; assay type: biochemical
Sequence of Human PKC delta (Q05655 whole entry): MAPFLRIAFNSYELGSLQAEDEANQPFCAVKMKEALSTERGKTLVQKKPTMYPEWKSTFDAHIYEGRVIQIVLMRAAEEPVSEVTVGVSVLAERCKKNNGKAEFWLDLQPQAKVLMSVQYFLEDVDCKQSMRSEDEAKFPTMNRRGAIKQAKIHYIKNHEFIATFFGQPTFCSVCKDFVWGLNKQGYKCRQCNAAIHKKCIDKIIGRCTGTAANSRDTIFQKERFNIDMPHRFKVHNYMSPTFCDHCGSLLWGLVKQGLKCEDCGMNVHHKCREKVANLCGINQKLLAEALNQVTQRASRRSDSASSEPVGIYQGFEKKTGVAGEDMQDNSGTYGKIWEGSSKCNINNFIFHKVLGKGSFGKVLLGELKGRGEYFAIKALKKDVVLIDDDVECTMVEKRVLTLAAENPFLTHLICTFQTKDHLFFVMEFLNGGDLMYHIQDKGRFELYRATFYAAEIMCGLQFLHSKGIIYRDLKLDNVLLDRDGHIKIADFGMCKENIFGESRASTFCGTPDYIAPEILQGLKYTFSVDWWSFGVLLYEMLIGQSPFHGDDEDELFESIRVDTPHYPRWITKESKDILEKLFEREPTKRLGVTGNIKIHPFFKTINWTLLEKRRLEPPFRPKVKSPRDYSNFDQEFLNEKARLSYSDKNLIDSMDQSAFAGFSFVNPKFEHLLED
Excerpt: as §1

- IC50 (Interleukin-8 release): 39 nM
- IC50 (pSHP2 (PKCβ cell assay)): 9.8 nM
- Inhibition of PKC delta (in words) (Human PKC delta): does not significantly inhibit
Structure (SMILES): Cc1ncc(F)c(Nc2n[nH]c3c2CN(C(=O)N2C[C@@H](C)N(CC4CCOCC4)C[C@@H]2C)C3(C)C)n1 [Compound 1, 5-{[(2S,5R)-2,5-dimethyl-4-(tetrahydro-2H-pyran-4-ylmethyl)piperazin-1-yl]carbonyl}-N-(5-fluoro-2-methylpyrimidin-4-yl)-6,6-dimethyl-1,4,5,6-tetrahydropyrrolo[3,4-c]pyrazol-3-amine]
